This is an account of results in patent US10266511B2, “No-releasing nitrooxy-chromene conjugates” (priority 2014, dated 2019).

In this test the test system is PGE2 production. In words: Rat air-pouch model for acute inflammation (exudate PGE2 by ELISA). The class given is in vivo, Sprague-Dawley rats. Particulars: oral gavage 0.01 mmol/kg 2 h before carrageenan, exudate 4 h after carrageenan. As to the method: A study of chromene release is assessed by measurement of PGE2 levels, which are indicative of inflammatory response. Compounds of the present invention lower the inflammatory response by selective COX-2 inhibition, decreasing PGE-2 levels in patients.
Animals: Sprague-Dawley rats (Charles River Laboratories, R #3234, PO #738990, male, 160-180 g) are received, individually examined, and housed in cages of five rats each. The rats are ear notched for identification purposes.
Compounds and dosing solutions: The vehicle is prepared by dissolving 40 g (2-hydroxypropyl)-β-cyclodextrin (HP-β-CD, Sigma, Cat. 332593, lot MKBJ5858V) in 160 mL sterile saline for injection, USP (Hospira, lot 26-801-FW) making a 25% solution which is filter sterilized (0.2 μm, Nalgene, Cat. 151-4020, lot 1095610). A 1% carrageenan solution is prepared by dissolving 0.6 g λ-carrageenan (Fluka, Cat. 22049, lot 1318338) in hot 60 mL sterile saline for injection, USP. This solution is stored at 4-8° C. Test compounds are dissolved in DMSO (Fisher Scientific, Cat. D128-500, lot 874999) to make 75 mM stocks. 0.25 mL of compound DMSO stocks are mixed with 12.5 mL of HP-β-CD solution at 50° C. (maximum DMSO concentration is 2% of the final volume of vehicle,). […]
Day 6—Compound administration and carrageenan insult: At commencement of the study, each rat is weighed and sorted into treatment groups of 5 rats/group based upon average weight. […] The pouch is gently massaged, the exudate immediately removed, and exudate volume recorded. […]
Data analysis: The exudate samples are thawed to room temperature and assayed by ELISA for PGE2 (R&D Systems, Cat. KGE004B, lot 307711). Statistical significance of treatments on mean exudate volumes are determined by comparison of means for treatment groups with vehicle group. Mean cytokine concentrations and standard deviations are determined for each group. Statistical significance of treatments on cytokine concentrations are determined for each compound group compared to vehicle group. Statistical significance (p-value) is calculated vs control groups by Student's t-Test. […]
Background: ELISA stands for enzyme-linked immunosorbent assay.

SMILES strings stand for the structures.

`CC(C)(C)c1cc2c(cc1Cl)C=C(C(=O)OC(CO[N+](=O)[O-])CO[N+](=O)[O-])C(C(F)(F)F)O2` (stereo not drawn) [Example 22a, 1,3-bis(Nitrooxy)propan-2-yl 7-(tert-butyl)-6-chloro-2-(trifluoromethyl)-2H-chromene-3-carboxylate]: the “% Inhibition of PGE2 production relative to control (+/−S.D.)” value is 75.4 (+/−9.1) %.

Consider `CC(C)(C)c1cc2c(cc1Cl)C=C(C(=O)O[C@H]1CO[C@H]3[C@@H]1OC[C@H]3O[N+](=O)[O-])[C@@H](C(F)(F)F)O2` [Example 33, (S)-(3S,3aR,6R,6aS)-6-(nitrooxy)hexahydrofuro[3,2-b]furan-3-yl 7-(tert-butyl)-6-chloro-2-(trifluoromethyl)-2H-chromene-3-carboxylate], for which the “% Inhibition of PGE2 production relative to control (+/−S.D.)” value was 91.8 (+/−4.9) %.

For `CC(C)(C)c1cc2c(cc1Cl)C=C(C(=O)O[C@H]1CO[C@H]3[C@@H]1OC[C@H]3O[N+](=O)[O-])C(C(F)(F)F)O2` (stereo partly drawn) [Example 33a, (3S,3aR,6R,6aS)-6-(nitrooxy)hexahydrofuro[3,2-b]furan-3-yl 7-(tert-butyl)-6-chloro-2-(trifluoromethyl)-2H-chromene-3-carboxylate], the “% Inhibition of PGE2 production relative to control (+/−S.D.)” value is reported as 76.7 (+/−7.8) %.
